# System: plasma testosterone
# Conditions: dog, in vivo, sc
# Procedure: The peptide of Example 3 was formulated in a polymeric PLGA implant in the form of rods which were about 1 cm long and 1 mm in diameter. These implants contained a loading of either 20 or 25% of the peptide (an amount of 7 or 10 mg), and were inserted subcutaneously into in male Beagle dogs which weighed between 10 and 12 kg.
structure (smiles),measurement,value
"CCNC(=O)[C@@H]1CCCN1C(=O)[C@H](CCCNC(=N)N)NC(=O)[C@H](CC(C)C)NC(=O)[C@@H](Cc1c(C)[nH]c2ccccc12)NC(=O)[C@H](Cc1ccc(O)cc1)NC(=O)[C@H](CO)NC(=O)[C@H](Cc1c[nH]c2ccccc12)NC(=O)[C@H](Cc1c[nH]cn1)NC(=O)[C@@H]1CCC(=O)N1 [Example 3, Pyro-Glu-His-Trp-Ser-Tyr-D-2-alkyl-Trp-Leu-Arg-Pro-NHCH2 CH3]",clinical side effects,No clinical side effects were observed
